Measured values: patent EP3154958B1, “PHOSPHATIDYLINOSITOL 3-KINASE INHIBITORS” (Gilead Sciences, Inc., priority 2014, dated 2015)
Like-named read-outs stand apart in the source and are kept apart here.

Columns and labels:
Format in all cases: biochemical
PI3Kγ = target: T1, PI3Kγ (Homo sapiens, UniProt P48736); assay: TR-FRET enzymatic activity assay, PI3Kγ
T1 construct: made in house
Experimental: (§1) The compounds of formula (I) were characterized for their enzymatic activity against the PI3K isoforms. The activities were measured using a time-resolved fluorescence resonance energy transfer (TR-FRET) assay.

PI3Kδ = target: T2, PI3Kδ (Homo sapiens, UniProt O00329); assay: TR-FRET enzymatic activity assay, PI3Kδ
T2 construct: made in house
T2 sequence (O00329 whole entry): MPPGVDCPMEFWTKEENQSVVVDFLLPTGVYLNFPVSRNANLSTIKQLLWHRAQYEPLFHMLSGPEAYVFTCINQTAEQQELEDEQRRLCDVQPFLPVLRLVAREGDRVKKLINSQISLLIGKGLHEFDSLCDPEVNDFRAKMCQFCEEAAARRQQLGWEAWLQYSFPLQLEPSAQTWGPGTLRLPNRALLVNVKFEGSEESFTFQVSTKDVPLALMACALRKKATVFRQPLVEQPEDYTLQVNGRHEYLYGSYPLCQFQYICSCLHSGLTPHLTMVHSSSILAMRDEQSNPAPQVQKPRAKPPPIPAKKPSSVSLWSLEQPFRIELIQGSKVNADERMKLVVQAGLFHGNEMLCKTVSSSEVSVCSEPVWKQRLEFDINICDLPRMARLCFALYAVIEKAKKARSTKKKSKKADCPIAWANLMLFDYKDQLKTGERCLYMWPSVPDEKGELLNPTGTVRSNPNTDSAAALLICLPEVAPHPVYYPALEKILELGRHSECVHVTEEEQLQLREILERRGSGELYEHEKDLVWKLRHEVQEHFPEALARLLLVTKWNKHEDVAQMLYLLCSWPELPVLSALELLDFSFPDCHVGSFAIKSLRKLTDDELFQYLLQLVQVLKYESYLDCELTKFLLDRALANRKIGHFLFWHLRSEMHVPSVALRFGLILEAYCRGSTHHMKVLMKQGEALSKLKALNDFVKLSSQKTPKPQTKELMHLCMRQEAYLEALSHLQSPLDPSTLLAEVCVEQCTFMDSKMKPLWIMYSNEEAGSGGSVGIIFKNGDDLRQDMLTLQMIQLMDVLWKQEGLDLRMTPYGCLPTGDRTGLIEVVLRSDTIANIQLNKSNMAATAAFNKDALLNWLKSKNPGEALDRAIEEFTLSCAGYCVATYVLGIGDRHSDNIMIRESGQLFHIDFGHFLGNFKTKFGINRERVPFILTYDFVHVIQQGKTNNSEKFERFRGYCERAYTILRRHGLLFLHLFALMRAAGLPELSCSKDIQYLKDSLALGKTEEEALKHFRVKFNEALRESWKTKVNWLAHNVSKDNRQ
T2 sequence (P27986 whole entry partner): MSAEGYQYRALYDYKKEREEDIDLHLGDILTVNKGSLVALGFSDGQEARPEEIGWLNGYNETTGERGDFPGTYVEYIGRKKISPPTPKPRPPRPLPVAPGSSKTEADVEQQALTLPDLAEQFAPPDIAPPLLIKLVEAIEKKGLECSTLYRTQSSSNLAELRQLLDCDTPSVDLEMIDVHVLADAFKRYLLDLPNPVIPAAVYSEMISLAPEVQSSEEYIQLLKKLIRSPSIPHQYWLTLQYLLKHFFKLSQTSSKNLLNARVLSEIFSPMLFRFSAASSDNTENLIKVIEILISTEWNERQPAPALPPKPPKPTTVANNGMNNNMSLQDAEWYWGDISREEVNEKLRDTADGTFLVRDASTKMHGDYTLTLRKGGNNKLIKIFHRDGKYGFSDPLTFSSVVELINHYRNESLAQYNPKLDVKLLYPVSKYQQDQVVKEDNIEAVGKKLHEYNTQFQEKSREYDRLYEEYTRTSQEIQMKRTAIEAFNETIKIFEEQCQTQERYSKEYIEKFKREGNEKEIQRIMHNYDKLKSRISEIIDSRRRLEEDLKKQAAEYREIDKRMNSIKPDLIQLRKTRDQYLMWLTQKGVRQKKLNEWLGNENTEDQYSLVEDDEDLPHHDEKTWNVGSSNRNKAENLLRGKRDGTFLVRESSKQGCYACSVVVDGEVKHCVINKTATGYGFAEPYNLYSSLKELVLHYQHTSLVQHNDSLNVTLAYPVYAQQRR
Experimental: as §1

PI3Kβ = target: T3, PI3Kβ (Homo sapiens, UniProt P42338); assay: TR-FRET enzymatic activity assay, PI3Kβ
T3 construct: made in house
T3 sequence (P42338 whole entry): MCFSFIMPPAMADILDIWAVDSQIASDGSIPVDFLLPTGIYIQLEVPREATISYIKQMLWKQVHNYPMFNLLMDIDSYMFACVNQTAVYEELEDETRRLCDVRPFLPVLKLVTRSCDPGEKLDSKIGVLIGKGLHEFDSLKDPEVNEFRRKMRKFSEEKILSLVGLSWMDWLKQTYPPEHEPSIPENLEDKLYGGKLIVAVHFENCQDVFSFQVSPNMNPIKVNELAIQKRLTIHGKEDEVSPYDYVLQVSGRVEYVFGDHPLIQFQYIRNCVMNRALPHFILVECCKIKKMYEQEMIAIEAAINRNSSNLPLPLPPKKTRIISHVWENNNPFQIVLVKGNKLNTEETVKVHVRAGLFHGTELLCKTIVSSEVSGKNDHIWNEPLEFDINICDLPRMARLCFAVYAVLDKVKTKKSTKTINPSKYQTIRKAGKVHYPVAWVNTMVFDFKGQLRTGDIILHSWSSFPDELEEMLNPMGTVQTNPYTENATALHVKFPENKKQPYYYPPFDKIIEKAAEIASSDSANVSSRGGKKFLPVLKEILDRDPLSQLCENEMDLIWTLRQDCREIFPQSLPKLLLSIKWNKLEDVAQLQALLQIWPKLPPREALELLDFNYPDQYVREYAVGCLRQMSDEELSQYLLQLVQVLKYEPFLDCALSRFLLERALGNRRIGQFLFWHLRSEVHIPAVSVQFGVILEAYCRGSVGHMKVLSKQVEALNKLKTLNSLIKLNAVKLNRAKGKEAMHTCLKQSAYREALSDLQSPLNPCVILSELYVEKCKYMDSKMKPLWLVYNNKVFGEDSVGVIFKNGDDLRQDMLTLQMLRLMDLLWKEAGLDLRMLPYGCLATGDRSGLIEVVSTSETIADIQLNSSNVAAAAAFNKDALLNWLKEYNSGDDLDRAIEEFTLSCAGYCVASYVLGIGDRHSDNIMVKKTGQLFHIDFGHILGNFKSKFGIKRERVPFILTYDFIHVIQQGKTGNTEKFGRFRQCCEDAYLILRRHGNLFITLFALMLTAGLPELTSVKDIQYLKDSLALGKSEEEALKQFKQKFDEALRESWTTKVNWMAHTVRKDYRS
T3 sequence (P27986 whole entry partner): as the sequence (P27986 whole entry partner) above
Experimental: as §1

[1] = recombinant heterodimeric PI3Kγ 2 nM, 2× Km ATP, 30 minutes at 25°C
[2] = recombinant heterodimeric PI3Kδ 25-50 pM, 2× Km ATP, 30 minutes at 25°C
[3] = recombinant heterodimeric PI3Kβ 25-50 pM, 2× Km ATP, 30 minutes at 25°C

T1 sequence (P48736 whole entry): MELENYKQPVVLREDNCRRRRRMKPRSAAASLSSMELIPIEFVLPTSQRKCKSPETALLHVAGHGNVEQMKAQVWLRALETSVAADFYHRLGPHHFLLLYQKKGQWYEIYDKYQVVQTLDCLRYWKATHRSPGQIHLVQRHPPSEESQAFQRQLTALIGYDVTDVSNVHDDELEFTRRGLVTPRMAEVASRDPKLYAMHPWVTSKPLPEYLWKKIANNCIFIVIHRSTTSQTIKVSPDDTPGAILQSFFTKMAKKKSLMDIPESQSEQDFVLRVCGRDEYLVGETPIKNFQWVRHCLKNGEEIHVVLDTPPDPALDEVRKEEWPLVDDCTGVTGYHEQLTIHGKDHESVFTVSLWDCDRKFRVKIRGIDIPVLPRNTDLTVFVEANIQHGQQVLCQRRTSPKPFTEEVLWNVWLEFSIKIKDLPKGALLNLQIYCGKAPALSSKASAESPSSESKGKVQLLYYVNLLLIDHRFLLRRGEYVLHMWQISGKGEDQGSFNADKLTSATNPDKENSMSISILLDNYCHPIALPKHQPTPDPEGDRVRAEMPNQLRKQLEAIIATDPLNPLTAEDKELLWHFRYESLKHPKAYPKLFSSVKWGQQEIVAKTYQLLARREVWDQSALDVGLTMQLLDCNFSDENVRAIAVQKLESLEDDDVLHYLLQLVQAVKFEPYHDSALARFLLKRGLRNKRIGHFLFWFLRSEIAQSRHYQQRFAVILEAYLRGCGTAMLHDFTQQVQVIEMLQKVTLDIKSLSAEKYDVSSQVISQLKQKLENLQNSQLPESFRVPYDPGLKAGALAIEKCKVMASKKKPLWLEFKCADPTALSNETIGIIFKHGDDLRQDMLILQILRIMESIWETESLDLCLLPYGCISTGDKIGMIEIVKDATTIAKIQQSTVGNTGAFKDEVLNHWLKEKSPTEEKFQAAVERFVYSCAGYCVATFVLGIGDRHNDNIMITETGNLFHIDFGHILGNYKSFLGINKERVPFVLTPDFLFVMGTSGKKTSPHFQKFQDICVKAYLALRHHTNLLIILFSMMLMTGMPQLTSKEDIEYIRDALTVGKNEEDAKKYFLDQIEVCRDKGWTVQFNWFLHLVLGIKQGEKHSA
T1 sequence (Q8WYR1 whole entry partner): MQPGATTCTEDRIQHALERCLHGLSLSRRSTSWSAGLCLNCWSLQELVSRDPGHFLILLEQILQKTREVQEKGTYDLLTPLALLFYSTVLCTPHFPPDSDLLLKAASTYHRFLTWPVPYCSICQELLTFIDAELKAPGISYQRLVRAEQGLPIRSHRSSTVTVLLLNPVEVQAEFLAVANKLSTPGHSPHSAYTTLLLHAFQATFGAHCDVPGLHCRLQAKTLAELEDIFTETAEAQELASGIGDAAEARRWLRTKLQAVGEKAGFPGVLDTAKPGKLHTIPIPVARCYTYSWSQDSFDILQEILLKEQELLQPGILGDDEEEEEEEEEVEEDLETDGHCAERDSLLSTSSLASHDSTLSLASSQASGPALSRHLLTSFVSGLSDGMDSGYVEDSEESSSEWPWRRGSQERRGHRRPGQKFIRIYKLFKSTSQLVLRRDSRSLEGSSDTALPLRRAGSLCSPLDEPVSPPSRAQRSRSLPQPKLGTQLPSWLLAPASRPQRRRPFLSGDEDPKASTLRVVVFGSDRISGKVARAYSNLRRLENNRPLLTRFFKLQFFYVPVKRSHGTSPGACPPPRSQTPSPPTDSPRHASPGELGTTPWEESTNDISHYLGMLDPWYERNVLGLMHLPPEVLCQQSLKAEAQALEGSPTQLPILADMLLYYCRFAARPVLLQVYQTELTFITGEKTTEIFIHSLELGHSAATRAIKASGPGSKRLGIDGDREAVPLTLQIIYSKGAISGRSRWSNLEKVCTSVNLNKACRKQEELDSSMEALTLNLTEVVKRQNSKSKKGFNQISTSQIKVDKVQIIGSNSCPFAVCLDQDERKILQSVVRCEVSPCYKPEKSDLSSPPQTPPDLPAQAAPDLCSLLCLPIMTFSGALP

Cc1nc(N)nc(N[C@H](c2nc3cccc(Cl)c3c(=O)n2C2[C@H]3CNC[C@@H]23)C2CC2)c1C#N (stereo in doubt) [Compound 14, 4-(((1S)-(3-((1R,5S)-3-azabicyclo[3.1.0]hexan-6-yl)-5-chloro-4-oxo-3,4-dihydroquinazolin-2-yl)(cyclopropyl)methyl)amino)-2-amino-6-methylpyrimidine-5-carbonitrile]
IC50 (PI3Kγ): 480 nM | IC50 (PI3Kδ): 0.3 nM | IC50 (PI3Kβ): 0.4 nM

N#Cc1c(N)nc(N)nc1N[C@H](c1nc2cccc(Cl)c2c(=O)n1C1[C@H]2CNC[C@@H]12)C1CC1 (stereo in doubt) [Compound 15, 4-(((1S)-(3-((1R,5S)-3-azabicyclo[3.1.0]hexan-6-yl)-5-chloro-4-oxo-3,4-dihydroquinazolin-2-yl)(cyclopropyl)methyl)amino)-2,6-diaminopyrimidine-5-carbonitrile]
IC50 (PI3Kγ): 650 nM | IC50 (PI3Kδ): 0.6 nM | IC50 (PI3Kβ): 2 nM

Cc1nc(N)nc(N[C@@H](C)c2nc3c(F)ccc(Cl)c3c(=O)n2C2[C@H]3CNC[C@@H]23)c1C#N (stereo in doubt) [Compound 16, 4-(((1S)-1-(3-((1R,5S)-3-azabicyclo[3.1.0]hexan-6-yl)-5-chloro-8-fluoro-4-oxo-3,4-dihydroquinazolin-2-yl)ethyl)amino)-2-amino-6-methylpyrimidine-5-carbonitrile]
IC50 (PI3Kγ; [1]): 2600 nM | IC50 (PI3Kδ; [2]): 6 nM | IC50 (PI3Kβ; [3]): 2 nM

C[C@H](Nc1nc(N)nc(N)c1C#N)c1nc2c(F)ccc(Cl)c2c(=O)n1C1[C@H]2CNC[C@@H]12 (stereo in doubt) [Compound 17, 4-(((1S)-1-(3-((1R,5S)-3-azabicyclo[3.1.0]hexan-6-yl)-5-chloro-8-fluoro-4-oxo-3,4-dihydroquinazolin-2-yl)ethyl)amino)-2,6-diaminopyrimidine-5-carbonitrile]
IC50 (PI3Kγ; [1]): 2800 nM | IC50 (PI3Kδ; [2]): 4 nM | IC50 (PI3Kβ; [3]): 3 nM

C[C@H](Nc1nc(N)nc(N)c1C#N)c1nc2cccc(Cl)c2c(=O)n1C1[C@H]2CNC[C@@H]12 (stereo in doubt) [Compound 19, 4-(((1S)-1-(3-((1R,5S)-3-azabicyclo[3.1.0]hexan-6-yl)-5-chloro-4-oxo-3,4-dihydroquinazolin-2-yl)ethyl)amino)-2,6-diaminopyrimidine-5-carbonitrile]
IC50 (PI3Kγ): 1200 nM | IC50 (PI3Kδ): 1 nM | IC50 (PI3Kβ): 3 nM

Cc1nc(N)nc(N[C@@H](C)c2nc3cccc(Cl)c3c(=O)n2[C@H]2CCCNCC2)c1C#N [Compound 10, 2-amino-4-(((S)-1-(3-((S)-azepan-4-yl)-5-chloro-4-oxo-3,4-dihydroquinazolin-2-yl)ethyl)amino)-6-methylpyrimidine-5-carbonitrile]
IC50 (PI3Kγ; [1]): > 10000 nM

Cc1nc(N)nc(N[C@@H](C)c2nc3cccc(Cl)c3c(=O)n2[C@@H]2CCCNCC2)c1C#N [Compound 11, 2-amino-4-(((S)-1-(3-((R)-azepan-4-yl)-5-chloro-4-oxo-3,4-dihydroquinazolin-2-yl)ethyl)amino)-6-methylpyrimidine-5-carbonitrile]
IC50 (PI3Kγ; [1]): > 10000 nM

C[C@H](Nc1nc(N)nc(N)c1C#N)c1nc2c(Cl)ccc(Cl)c2c(=O)n1N1CCNCC1 [Compound 53, (S)-2,4-diamino-6-((1-(5,8-dichloro-4-oxo-3-(piperazin-1-yl)-3,4-dihydroquinazolin-2-yl)ethyl)amino)pyrimidine-5-carbonitrile]
IC50 (PI3Kδ): 6 nM | IC50 (PI3Kδ; [2]): 3 nM | IC50 (PI3Kβ): 27 nM | IC50 (PI3Kβ; [3]): 4 nM

C[C@H](NC(=O)c1nccnc1N)c1nc2cccc(Cl)c2c(=O)n1N1CCNCC1 [Compound 56, (S)-3-amino-N-(1-(5-chloro-4-oxo-3-(piperazin-1-yl)-3,4-dihydroquinazolin-2-yl)ethyl)pyrazine-2-carboxamide]
IC50 (PI3Kδ; [2]): 230 nM | IC50 (PI3Kβ; [3]): 21 nM

C[C@H](Nc1nc(N)nc(N)c1C#N)c1nc2cccc(Cl)c2c(=O)n1N1CCNCC1 [Compound 57, (S)-2,4-diamino-6-((1-(5-chloro-4-oxo-3-(piperazin-1-yl)-3,4-dihydroquinazolin-2-yl)ethyl)amino)pyrimidine-5-carbonitrile]
IC50 (PI3Kγ; [1]): 710 nM
